Source: patent US20230066946A1, “1,5-DIPHENYLPYRAZOLYL-3-OXYALKYL ACIDS AND 1-PHENYL-5-THIENYLPYRAZOLYL-3-OXYALKYL ACIDS AND THE USE THEREOF FOR CONTROL OF UNWANTED PLANT GROWTH” (Bayer Aktiengesellschaft, priority 2019, published 2023)

Key:
POLCO [1] = assay: Pre-emergence herbicidal action against POLCO; assay type: in vivo, Polygonum convolvulus; details: 320 g/ha, scored visually after about 3 weeks vs untreated controls
Description: (§1) Seeds of mono- and dicotyledonous weed plants are placed in plastic pots in sandy loam soil (doubly sown with one species each of mono- or dicotyledonous weed plants per pot) and covered with soil. The compounds of the invention, formulated in the form of wettable powders (WP) or as emulsion concentrates (EC), are then applied onto the surface of the covering soil as aqueous suspension or emulsion with addition of 0.5% additive at a water application rate equivalent to 600 litres per hectare. After the treatment, the pots are placed in a greenhouse and kept under good growth conditions for the trial plants. After about 3 weeks, the effect of the preparations is scored visually in comparison with untreated controls as percentages. For example, 100% activity=the plants have died, 0% activity=like control plants. [table] Tables 4.1-4.15 below show the effects of selected compounds of the general formula (I) according to Tables 1 to 3 on various harmful plants at an application rate corresponding to 1280 or 320 g/ha, which have been obtained by the aforementioned experimental method.

POLCO [2] = assay: Post-emergence herbicidal action against POLCO; assay type: in vivo, Polygonum convolvulus; details: 320 g/ha, visual rating about 3 weeks after treatment
Procedure: (§2) [table] Seeds of mono- and dicotyledonous weed plants are placed in plastic pots in sandy loam soil (twin sowing with one species each of mono- or dicotyledonous weed plants per pot), covered with soil and cultivated in a greenhouse under controlled growth conditions. 2 to 3 weeks after sowing, the test plants are treated at the one-leaf stage. The compounds of the invention, formulated in the form of wettable powders (WP) or as emulsion concentrates (EC), are applied to the green parts of the plants as aqueous suspension or emulsion with addition of 0.5% additive at a water application rate equivalent to 600 litres per hectare. After the test plants have been kept in the greenhouse under optimum growth conditions for about 3 weeks, the activity of the preparations is rated visually in comparison to untreated controls. For example, 100% activity=the plants have died, 0% activity=like control plants. Tables 5.1-5.16 below show the effects of selected compounds of the general formula (I) according to Tables 1 to 3 on various harmful plants at an application rate corresponding to 1280 or 320 g/ha, which have been obtained by the aforementioned experimental method.

ECHCG [3] = assay: Post-emergence herbicidal action against ECHCG; assay type: in vivo, Echinochloa crus-galli; details: 1280 g/ha, post-emergence at one-leaf stage, rated visually after about 3 weeks vs untreated controls
Procedure: as §2

VIOTR = assay: Post-emergence herbicidal action against VIOTR; assay type: in vivo, Viola tricolor; details: 320 g/ha, visual rating about 3 weeks after treatment
Procedure: as §2

VERPE [4] = assay: Post-emergence herbicidal action against VERPE; assay type: in vivo, Veronica persica; details: 320 g/ha, visual rating about 3 weeks after treatment
Procedure: as §2

AMARE [5] = assay: Post-emergence herbicidal action against AMARE; assay type: in vivo, Amaranthus retroflexus; details: visual rating about 3 weeks after treatment
Outline: (§3)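 Applied post-emergence at 1280 or 320 g/ha to one-leaf-stage weeds grown in sandy loam, using WP or EC formulations in water (600 litres per hectare, 0.5% additive). Efficacy is scored visually relative to untreated plants about 3 weeks later, 0% meaning no effect and 100% plant death.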

SETVI [6] = assay: Post-emergence herbicidal action against SETVI; assay type: in vivo, Setaria viridis; details: 1280 g/ha, post-emergence at one-leaf stage, rated visually after about 3 weeks vs untreated controls
Procedure: as §2

AMARE [7] = assay: Pre-emergence herbicidal action against AMARE; assay type: in vivo, Amaranthus retroflexus; details: scored visually after about 3 weeks vs untreated controls; for Pre-emergence action at 320 g/ha against AMARE in %: 100% = plants have died, 0% = like control plants; for Pre-emergence action against AMARE in %: 1280 g/ha
Outline: (§4)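 Visual percent activity (100% = plants dead, 0% = like control) scored about 3 weeks after pre-emergence treatment in greenhouse. Compounds as WP or EC, applied to covering soil surface with 0.5% additive, 600 L/ha water, at 1280 or 320 g/ha.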

STEME [8] = assay: Pre-emergence herbicidal action against STEME; assay type: in vivo, Stellaria media; details: scored visually after about 3 weeks vs untreated controls
Outline: as §4

ECHCG [9] = assay: Pre-emergence herbicidal action against ECHCG; assay type: in vivo, Echinochloa crus-galli; details: scored visually after about 3 weeks vs untreated controls, 100% = plants have died, 0% = like control plants
Description: as §1

SETVI [10] = assay: Pre-emergence herbicidal action against SETVI; assay type: in vivo, Setaria viridis; details: 1280 g/ha, scored visually after about 3 weeks vs untreated controls
Outline: as §4

MATIN = assay: Post-emergence herbicidal action against MATIN; assay type: in vivo, Matricaria inodora; details: visual rating about 3 weeks after treatment
Outline: as §3

PHBPU = assay: Post-emergence herbicidal action against PHBPU; assay type: in vivo, Pharbitis purpurea; details: 320 g/ha, visual rating about 3 weeks after treatment
Procedure: as §2

STEME [11] = assay: Post-emergence herbicidal action against STEME; assay type: in vivo, Stellaria media; details: visual rating about 3 weeks after treatment
Outline: as §3

VERPE [12] = assay: Pre-emergence herbicidal action against VERPE; assay type: in vivo, Veronica persica; details: 320 g/ha, scored visually after about 3 weeks vs untreated controls
Description: as §1

COC(=O)COc1nn(-c2ccc(Cl)cc2)c(-c2ccccc2)c1Cl [I-001]
Pre-emergence action against POLCO in % (POLCO [1]): 90%

CCOC(=O)COc1nn(-c2ccc(F)cc2F)c(-c2ccccc2)c1Br [I-079]
Post-emergence action against POLCO in % (POLCO [2]): 80% | Post-emergence action against ECHCG in % (ECHCG [3]): 100% | Post-emergence action against VIOTR in % (VIOTR): 100% | Post-emergence action against VERPE in % (VERPE [4]): 80% | Post-emergence action against AMARE in % (AMARE [5]; 320 g/ha): 80% | Post-emergence action against AMARE in % (AMARE [5]; 1280 g/ha): 100% | Post-emergence action against SETVI in % (SETVI [6]): 100% | Pre-emergence action at 320 g/ha against AMARE in % (AMARE [7]): 80% | Pre-emergence action against AMARE in % (AMARE [7]): 100% | Pre-emergence action against STEME in % (STEME [8]; 1280 g/ha): 100% | Pre-emergence action at 1280 g/ha against ECHCG in % (ECHCG [9]): 90% | Pre-emergence action against SETVI in % (SETVI [10]): 100% | Post-emergence action against MATIN in % (MATIN; 320 g/ha): 80% | Post-emergence action against MATIN in % (MATIN; 1280 g/ha): 100% | Pre-emergence action against POLCO in % (POLCO [1]): 80% | Post-emergence action against PHBPU in % (PHBPU): 90% | Post-emergence action against STEME in % (STEME [11]; 1280 g/ha): 100%

CCOC(=O)COc1nn(-c2ccc(F)cc2F)c(-c2ccc(F)cc2)c1Br [I-081]
Post-emergence action against POLCO in % (POLCO [2]): 80% | Post-emergence action against ECHCG in % (ECHCG [3]): 90% | Post-emergence action against VIOTR in % (VIOTR): 100% | Post-emergence action against VERPE in % (VERPE [4]): 80% | Post-emergence action against AMARE in % (AMARE [5]; 320 g/ha): 90% | Post-emergence action against AMARE in % (AMARE [5]; 1280 g/ha): 100% | Post-emergence action against SETVI in % (SETVI [6]): 90% | Pre-emergence action against VERPE in % (VERPE [12]): 80% | Pre-emergence action at 320 g/ha against AMARE in % (AMARE [7]): 80% | Pre-emergence action against AMARE in % (AMARE [7]): 100% | Pre-emergence action against STEME in % (STEME [8]; 320 g/ha): 80% | Pre-emergence action against STEME in % (STEME [8]; 1280 g/ha): 100% | Pre-emergence action at 1280 g/ha against ECHCG in % (ECHCG [9]): 90% | Pre-emergence action against SETVI in % (SETVI [10]): 100% | Post-emergence action against MATIN in % (MATIN; 320 g/ha): 80% | Post-emergence action against MATIN in % (MATIN; 1280 g/ha): 100% | Pre-emergence action against POLCO in % (POLCO [1]): 100% | Post-emergence action against PHBPU in % (PHBPU): 90% | Post-emergence action against STEME in % (STEME [11]; 320 g/ha): 80% | Post-emergence action against STEME in % (STEME [11]; 1280 g/ha): 100%

O=C(O)COc1nn(-c2ccccc2F)c(-c2ccccc2)c1Br [I-082]
Post-emergence action against VIOTR in % (VIOTR): 100% | Post-emergence action against VERPE in % (VERPE [4]): 80% | Post-emergence action against AMARE in % (AMARE [5]; 320 g/ha): 80% | Pre-emergence action against VERPE in % (VERPE [12]): 80% | Pre-emergence action at 320 g/ha against AMARE in % (AMARE [7]): 90% | Post-emergence action against MATIN in % (MATIN; 320 g/ha): 80% | Pre-emergence action against POLCO in % (POLCO [1]): 80% | Post-emergence action against PHBPU in % (PHBPU): 90%

CCOC(=O)COc1nn(-c2ccc(F)cc2F)c(-c2ccccc2)c1Cl [I-100]
Post-emergence action against POLCO in % (POLCO [2]): 90% | Post-emergence action against ECHCG in % (ECHCG [3]): 90% | Post-emergence action against VIOTR in % (VIOTR): 100% | Post-emergence action against VERPE in % (VERPE [4]): 90% | Post-emergence action against AMARE in % (AMARE [5]; 320 g/ha): 80% | Post-emergence action against AMARE in % (AMARE [5]; 1280 g/ha): 90% | Pre-emergence action against VERPE in % (VERPE [12]): 100% | Pre-emergence action at 320 g/ha against AMARE in % (AMARE [7]): 100% | Pre-emergence action against AMARE in % (AMARE [7]): 100% | Pre-emergence action against STEME in % (STEME [8]; 320 g/ha): 90% | Pre-emergence action against STEME in % (STEME [8]; 1280 g/ha): 100% | Pre-emergence action at 1280 g/ha against ECHCG in % (ECHCG [9]): 100% | Pre-emergence action against SETVI in % (SETVI [10]): 100% | Post-emergence action against MATIN in % (MATIN; 320 g/ha): 80% | Post-emergence action against MATIN in % (MATIN; 1280 g/ha): 90% | Post-emergence action against PHBPU in % (PHBPU): 90% | Post-emergence action against STEME in % (STEME [11]; 320 g/ha): 80% | Post-emergence action against STEME in % (STEME [11]; 1280 g/ha): 90%
